One may read the IC50 as the concentration that inhibits the measured activity by half. Read a low IC50 as greater potency in that assay. For orientation: IC90 means the point of the concentration-response curve where the effect stands at 90%. Higher therefore signals a need for much substance.

≈ marks a conversion by molar mass, not a printed value.

This is an account of results in article PMC7421780 (Future Medicinal Chemistry, 2020).

Holding throughout (experiment): microbe, parasite or virus in culture
Assay type in all cases: cell-based
What all share (details): Mycobacterium tuberculosis

In test [1] the test system is RIF-R2 (Mtb strain resistant to rifampicin).
For test [2], the system named is FQ-R1 (Mtb strain resistant to fluoroquinolone).
Test [3] relates to INH-R1 (Mtb strain resistant to isoniazid).
Test [4] deals with INH-R2 (Mtb strain resistant to isoniazid).
The test system of test [5] is RIF-R1 (Mtb strain resistant to rifampicin).

In the case of `CO[C@H]1/C=C/O[C@@]2(C)Oc3c(C)c(O)c4c(O)c(c(/C=N/N5CCN(C)CC5)c(O)c4c3C2=O)NC(=O)/C(C)=C\C=C\[C@H](C)[C@H](O)[C@@H](C)[C@@H](O)[C@@H](C)[C@H](OC(C)=O)[C@@H]1C` [Rifampicin, reference compound], the IC50 in test [1] is greater than 50 µM; in test [2], 0.013 µM; in test [4], 0.0047 µM; in test [5], 1.2 µM. For the same molecule, the IC90 in test [1] was greater than 50 µM; in test [2], 0.039 µM; in test [3], 0.022 µM; in test [4], 0.012 µM; in test [5] it was 2.3 µM. For the same molecule, the MIC in test [1] was greater than 50 µM; in test [2] it was 0.027 µM (≈ 0.0222 µg/mL); in test [4], 0.065 µM (≈ 0.0535 µg/mL).

In the case of `O=[N+]([O-])c1cn(Cc2cccc(Cn3cnc([N+](=O)[O-])c3)n2)cn1` [Compound 2b, 2,6-bis((4-nitro-1H-imidazol-1-yl)methyl)pyridine], the half-maximal inhibitory concentration (IC50) is 38 µM in test [1]; 66 µM in test [2]; 68 µM in test [3]; 24 µM in test [4]; 60 µM in test [5]. In addition, the IC90 in test [1] amounted to 61 µM; in test [2], 92 µM; in test [3] it was 90 µM; in test [4], 28 µM; in test [5], 160 µM. Further, the MIC in test [1] is 68 µM (≈ 22.4 µg/mL); in test [2], 102 µM (≈ 33.6 µg/mL); in test [3], 98 µM (≈ 32.3 µg/mL); in test [4], 28 µM (≈ 9.22 µg/mL); in test [5], 111 µM (≈ 36.5 µg/mL).

For `c1cc(Cn2cnc3ccccc32)nc(Cn2cnc3ccccc32)c1` [Compound 5, 2,6-bis((1H-benzo[d]imidazol-1-yl)methyl)pyridine], the IC50 in test [1], in test [2], in test [3], in test [4] and in test [5] was greater than 50 µM each time. Also, the IC90 in test [1], in test [2], in test [3], in test [4] and in test [5] was greater than 50 µM each time. In addition, the MIC in test [1], in test [2], in test [3], in test [4] and in test [5] was greater than 50 µM in each case.

In the case of `NNC(=O)c1ccncc1` [Isoniazid, reference compound], the IC50 in test [1] is 0.54 µM; in test [2] it was 0.36 µM; in test [3], greater than 200 µM; in test [4] it was greater than 200 µM; in test [5], 0.15 µM. Moreover, the IC90 in test [1] is 0.6 µM; in test [2], 0.47 µM; in test [3] it was greater than 200 µM; in test [4], greater than 200 µM; in test [5], 0.21 µM. Further, the MIC in test [1] was 0.62 µM (≈ 0.085 µg/mL); in test [2], 0.35 µM (≈ 0.048 µg/mL); in test [3] it was greater than 200 µM; in test [4], greater than 200 µM; in test [5] it was 0.17 µM (≈ 0.0233 µg/mL).

`O=C(C[n+]1ccn(Cc2cccc(Cn3cc[n+](CC(=O)c4ccc([N+](=O)[O-])cc4)c3)n2)c1)c1ccc([N+](=O)[O-])cc1.[Br-].[Br-]` [Compound 4f, 1,1′-(pyridine-2,6-diylbis(methylene))bis(3-(2-(4-nitrophenyl)-2-oxoethyl)-1H-imidazol-3-ium) bromide]: the IC50 is 40 µM in test [1]; 49 µM in test [2]; 46 µM in test [3]; 39 µM in test [4]; 35 µM in test [5]. The IC90 in test [1] was determined as 120 µM; in test [2], 91 µM; in test [3] it was 52 µM; in test [4], 75 µM; in test [5] it was 100 µM. The MIC is greater than 200 µM in test [1]; 87 µM in test [2]; 55 µM in test [3]; 65 µM in test [4]; 67 µM in test [5].

`O=C(C[n+]1cn(Cc2cccc(Cn3c[n+](CC(=O)c4ccc([N+](=O)[O-])cc4)c4ccccc43)n2)c2ccccc21)c1ccc([N+](=O)[O-])cc1.[Br-].[Br-]` [Compound 6f, 1,1′-(pyridine-2,6-diylbis(methylene))bis(3-(2-(4-nitrophenyl)-2-oxoethyl)-1H-benzo[d]imidazol-3-ium) bromide]: the IC50 in test [1] worked out at 17 µM; in test [2], 18 µM; in test [3], 13 µM; in test [4], 13 µM; in test [5], 15 µM. The IC90 in test [1] was 31 µM; in test [2], 38 µM; in test [3], 21 µM; in test [4], 22 µM; in test [5], 24 µM. The MIC in test [1] was 30 µM; in test [2] it was 38 µM; in test [3], 24 µM; in test [4] it was 25 µM; in test [5] it was 25 µM.

`O=C(C[n+]1cn(Cc2cccc(Cn3c[n+](CC(=O)c4ccccc4)c4ccccc43)n2)c2ccccc21)c1ccccc1.[Br-].[Br-]` [Compound 6c, 1,1′-(pyridine-2,6-diylbis(methylene))bis(3-(2-oxo-2-phenylethyl)-1H-benzo[d]imidazol-3-ium) bromide]: the IC50 in test [1] was determined as 44 µM; in test [2] it was 40 µM; in test [3], 42 µM; in test [4] it was 42 µM; in test [5], 24 µM. For the same molecule, the IC90 in test [1] was 120 µM; in test [2], greater than 200 µM; in test [3], 170 µM; in test [4], 150 µM; in test [5], 110 µM. Also, the MIC in test [1] was found to be 100 µM; in test [2], 200 µM; in test [3], 120 µM; in test [4], 110 µM; in test [5], 87 µM.

Take `C[C@H]1COc2c(N3CCN(C)CC3)c(F)cc3c(=O)c(C(=O)O)cn1c23` [Compound C3, Levofloxacin, reference compound]: the IC50 amounted to 0.6 µM in test [1]; 12 µM in test [2]; 0.64 µM in test [3]; 0.84 µM in test [4]; 0.59 µM in test [5]. Further, the IC90 in test [1] is 1.2 µM; in test [2], 22 µM; in test [3], 1.4 µM; in test [4] it was 1.4 µM; in test [5], 0.91 µM. In addition, the figures for the MIC in test [1], in test [2] and in test [3] were 1.1 µM (≈ 0.398 µg/mL), 20 µM (≈ 7.23 µg/mL) and 1.2 µM (≈ 0.434 µg/mL), respectively.
